These are literature values, as cited in patent publication US10765646B2, “Methods of treating developmental encephalopathies” (Ovid Therapeutics Inc., priority 2017, dated 2020).

For series [1] the following is noted: estimated.
For series [2] the following is noted: 5 mg (±)-ketamine i.v. infusion (30 min), single dose, fasting, healthy subjects, serum.
For series [3] the following is noted: relative to ketamine.
In the next series the target is NMDA receptor. The following applies: noncompetitive NMDA receptor antagonist.

As for `CNC1(c2ccccc2Cl)CCCCC1=O` (racemic) [ketamine, (R,S)-2-(2-chlorophenyl)-2-(methylamino)cyclohexanone], the elimination half-life in series [1] was 2 to 3 h. Also, in series [2], the “AUC0-∞ of (±)-ketamine” value was 59.9 ± 13.2 ng·h/mL, the “Cmax of (±)-ketamine” value was 33.7 ± 9.74 ng/mL and the “T1/2 (apparent terminal half-life) of (±)-ketamine” value was 6.99 ± 5.22 h.

On to `NC1(c2ccccc2Cl)CCCCC1=O` (racemic) [norketamine, (R,S)-2-(2-chlorophenyl)-2-(amino)cyclohexanone], for which the “times less potent as an anesthetic in comparison (with ketamine)” value in series [3] is 3-5 times. Also, the elimination half-life in series [1] was 4 h.

One may read the Ki as a dissociation constant, usually derived from enzyme kinetics or from competition with a known ligand. As to `N[C@@]1(c2ccccc2Cl)CCCCC1=O` [(R)-(−)-norketamine], the Ki at NMDA receptor is 13 µM.

Take `N[C@]1(c2ccccc2Cl)CCCCC1=O` [(S)-(+)-norketamine]: the Ki on NMDA receptor was 1.7 µM.
